Structures are written as SMILES.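 Test compounds were applied to cells in 96-well plates for 48 hours at 5 doses. GI50 = concentration required for 50% inhibition of growth.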 Active and inactive are the calls of the source. Cut-off read from the data, not from the text of the source: active = GI50 up to about 1.1 µM and inactive = higher.

What all share (assay): NCI tumour cell line growth inhibition, 48 h
The subject of assay [1] is 786-0.
Assay [2] concerns BT-549.
Assay [3] relates to CAKI-1.
Assay [4] deals with EKVX.
The test system of assay [5] is HL-60.
The subject of assay [6] is HOP-62.
Assay [7] concerns Hs-578T.
In assay [8] the test system is LOX IMVI.
Assay [9] concerns MDA-N.
Assay [10] deals with OVCAR-3.
Assay [11] relates to OVCAR-8.
The subject of assay [12] is SF-539.
Assay [13] has as its system SK-MEL-28.
The test system of assay [14] is SK-MEL-2.
For assay [15], the system named is SK-OV-3.
The test system of assay [16] is SN12C.
The test system of assay [17] is SW-620.
The subject of assay [18] is TK-10.
Assay [19] concerns U-251.
Assay [20] relates to RXF 393.

Consider `COc1cc2c(cc1OC)CN1CCc3ccccc3CC1C2` (configuration not stated), for which the GI50 in assay [1] was 36.3 µM (inactive); in assay [2], 31.3 µM (inactive); in assay [3], 42.4 µM (inactive); in assay [4] it was 47.3 µM (inactive); in assay [5], 27.2 µM (inactive); in assay [6], 65.8 µM (inactive). Further, the GI50 is > 100 µM (inactive) in assay [7]; 39 µM (inactive) in assay [8]; 44.1 µM (inactive) in [9]; 97.5 µM (inactive) in assay [10]; 44.1 µM (inactive) in assay [11]; 34.4 µM (inactive) in assay [12]. In addition, the GI50 in [13] is 63.1 µM (inactive); in assay [14], 34.3 µM (inactive); in assay [15], 53.5 µM (inactive); in [16], 40.7 µM (inactive); in assay [17] it was 37.8 µM (inactive); in assay [18] it was 13.7 µM (inactive). The GI50 in assay [19] was 93.1 µM (inactive).
Take `Cc1cc(C)c(C)c(-n2[nH]c(=O)n(C)c2=O)c1C`: the GI50 in assay [1], in assay [2], in assay [3], in assay [4], in assay [5] and in assay [6] was > 100 µM (inactive) throughout. For the same molecule, the GI50 in assay [7] is > 100 µM (inactive); in assay [8], 99.3 µM (inactive); in [9], > 100 µM (inactive); in [10], > 100 µM (inactive); in assay [11], > 100 µM (inactive); in [12], > 100 µM (inactive). Further, the GI50 in [13], in [14], in assay [15], in assay [16], in assay [17] and in assay [18] was > 100 µM (inactive) throughout. Also, the GI50 in [19] was > 100 µM (inactive).
Consider `O=C(O)CN1CCNCCNCC1`, for which the GI50 in [1] is > 100 µM (inactive); in assay [2] it was > 100 µM (inactive); in assay [3] it was > 100 µM (inactive); in assay [4], > 100 µM (inactive); in assay [5], 0.9 µM (active); in assay [6] it was > 100 µM (inactive). Moreover, the GI50 in assay [7], in assay [8], in assay [9], in assay [10], in assay [11] and in assay [12] was > 100 µM (inactive) throughout. Moreover, the GI50 in assay [13], in [14], in [15], in assay [16], in assay [17] and in assay [18] was > 100 µM (inactive) in each case. Further, the GI50 in assay [19] is > 100 µM (inactive).
In the case of `C[C@]12CC[C@H]3[C@@H](CCC4=CC(=O)CC[C@@]43C)[C@@H]1CC[C@@H]2C(=O)Nc1ccc([N+](=O)[O-])c(C(F)(F)F)c1`, the GI50 in assay [1] is 16.6 µM (inactive); in assay [2], 19.4 µM (inactive); in [3], 18.7 µM (inactive); in [4], 13.4 µM (inactive); in [5] it was 39.4 µM (inactive); in [6], 29 µM (inactive). Besides, the GI50 in assay [7] is 18.2 µM (inactive); in assay [8] it was 15.8 µM (inactive); in assay [9], > 10 µM (inactive); in [10], 22.8 µM (inactive); in [11] it was 26.4 µM (inactive); in [12], 18.7 µM (inactive). The GI50 in [13] was 20.7 µM (inactive); in [14], 17.5 µM (inactive); in [15], 12.7 µM (inactive); in [16] it was 23.4 µM (inactive); in assay [17], 20.9 µM (inactive); in assay [18], 19 µM (inactive). Moreover, in assay [19], the GI50 was 17.1 µM (inactive).
Consider `O=c1[nH]nc(-c2ccccc2)c2[nH]c3c(c12)CCCc1ccccc1-3`, for which the GI50 was 14.2 µM (inactive) in [1]; 20.7 µM (inactive) in [2]; 22 µM (inactive) in assay [3]; 10.6 µM (inactive) in assay [4]; 20.9 µM (inactive) in assay [5]; 19.3 µM (inactive) in [6]. Besides, the GI50 in assay [7] was 17 µM (inactive); in assay [8], 16.5 µM (inactive); in assay [9] it was 12.5 µM (inactive); in assay [10], 19.3 µM (inactive); in [11], 17.4 µM (inactive); in assay [20] it was 15.6 µM (inactive). Also, the GI50 was 17.2 µM (inactive) in [12]; 52.2 µM (inactive) in assay [15]; 16.6 µM (inactive) in [16]; 19.1 µM (inactive) in [17]; 19.4 µM (inactive) in [18]; 11.4 µM (inactive) in [19].
Turning to `COC1C(=O)CCC2(CO2)C1(O)C1(C)OC1CCC(C)C` (configuration not stated), the GI50 in assay [1] is 47.2 µM (inactive); in assay [2] it was > 100 µM (inactive); in [3], > 100 µM (inactive); in assay [4], > 100 µM (inactive); in [5], 42.8 µM (inactive); in assay [6] it was 54.5 µM (inactive). The GI50 in assay [7] is 84.3 µM (inactive); in assay [9] it was 29.4 µM (inactive); in assay [10] it was > 100 µM (inactive); in assay [11] it was 28 µM (inactive); in assay [20], > 100 µM (inactive); in [12] it was > 100 µM (inactive). The GI50 is 21.8 µM (inactive) in assay [13]; > 100 µM (inactive) in assay [15]; 23.3 µM (inactive) in assay [16]; 19.8 µM (inactive) in assay [17]; 13.5 µM (inactive) in assay [19].
Consider `O=C(O)Cc1cc(O)c(CC(=O)O)cc1O`, for which the GI50 in assay [1], in assay [2], in assay [3], in [4], in [5] and in [6] was > 100 µM (inactive) in each case. Also, the GI50 in [7], in [8], in [9], in [10], in assay [11] and in [20] was > 100 µM (inactive) throughout. The GI50 in assay [13], in assay [14], in [16], in [17], in assay [18] and in assay [19] was > 100 µM (inactive) throughout.
As for `CC(=O)C12C[C@](C#N)(N3CCCCCC3)C1C=Cc1ccccc12` (some centres not stated), the GI50 in assay [1], in assay [2], in [3], in [4], in assay [5] and in [6] was > 100 µM (inactive) in each case. Moreover, the GI50 in [7], in [9], in [10], in assay [11], in assay [20] and in assay [12] was > 100 µM (inactive) in each case. The GI50 in [13], in assay [15], in [16], in assay [17], in assay [18] and in [19] was > 100 µM (inactive) each time.

Source of the values: ChEMBL document CHEMBL1201862, “PubChem BioAssay data set” (2004).
